This note sets out measurements from US20160108027A1, “SUBSTITUTED BENZOXAZOLES” (BAYER PHARMA AKTIENGESELLSCHAFT, priority 2013, published 2016).

Assay [1] has as its target T1, thrombin (Homo sapiens, UniProt P00734). The assay can be described thus: Measurement of the thrombin inhibition in buffer. Type of assay: biochemical. Particulars: human thrombin 0.06 nmol/l in Tris buffer pH 7.4, 22° C., substrate Boc-Asp(OBzl)-Pro-Arg-AMC; in some cases means of individual determinations. Summed up:
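Compound pre-incubated 15 min at 22° C with 0.06 nmol/l human thrombin in 50 mmol/l Tris, 100 mmol/l NaCl, 0.1% BSA, pH 7.4, then 5 μmol/l Boc-Asp(OBzl)-Pro-Arg-AMC added for 30 min. AMC fluorescence read at 360/460 nm against DMSO controls; IC50 from concentration–activity curves.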

Assay [2] has as its target T1, thrombin. The experiment in a line: Determination of the thrombin-inhibitory activity in plasma samples (ecarin-activated). Type of assay: biochemical. Particulars: citrate plasma, ecarin activation, fluorogenic thrombin substrate; in some cases means of individual determinations. The method in brief: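 Citrate plasma activated with ecarin (final 20 mU per reaction) in Ca buffer (Hepes, NaCl, CaCl2, PEG), with compound diluted from DMSO into water. Fluorogenic thrombin substrate at final 50 μmol/l; fluorescence (ex 360/em 465 nm) read each minute for 20 minutes, with buffer-only unstimulated control.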

Take `CCC1C(=O)NC(C)CN1C(=O)c1cc(OC)c2oc(NCc3cc(Cl)ccn3)nc2c1` (single isomer, unassigned) [Example 80, 4-[(2-{[(4-Chloropyridin-2-yl)methyl]amino}-7-methoxy-1,3-benzoxazol-5-yl)carbonyl]-3-ethyl-6-methylpiperazin-2-one]: the IC50 against thrombin [1] and at thrombin [2] was 16 nM throughout.
Turning to `CCC1C(=O)NC(C)CN1C(=O)c1cc(OC)c2oc(NCc3cc(Cl)ccn3)nc2c1` (single isomer, unassigned) [Example 81, 4-[(2-{[(4-Chloropyridin-2-yl)methyl]amino}-7-methoxy-1,3-benzoxazol-5-yl)carbonyl]-3-ethyl-6-methylpiperazin-2-one], the IC50 at thrombin [1] stood at 12 nM; on thrombin [2] it was 32 nM.
In the case of `COc1cc(C(=O)N2CC(C)(C)NC(=O)C2CC#N)cc2nc(NCc3cc(Cl)ccn3)oc12` (single isomer, unassigned) [Example 84, {1-[(2-{[(4-chloropyridin-2-yl)methyl]amino}-7-methoxy-1,3-benzoxazol-5-yl)carbonyl]-5,5-dimethyl-3-oxopiperazin-2-yl}acetonitrile], the half-inhibitory concentration (IC50) against thrombin [1] was determined as 11 nM; at thrombin [2] it was 21 nM.
As to `COc1cc(C(=O)N2CC(C)CCC2CCO)cc2nc(NCc3cc(Cl)ccn3)oc12` (single isomer, unassigned) [Example 85, (2-{[(4-Chloropyridin-2-yl)methyl]amino}-7-methoxy-1,3-benzoxazol-5-yl) [2-(2-hydroxyethyl)-5-methylpiperidin-1-yl]methanone], the IC50 on thrombin [1] is 17 nM; on thrombin [2], 47 nM.
On the same counts, the results for `COc1cc(C(=O)N2CC(C)CCC2C2(O)CC2)cc2nc(NCc3cc(Cl)ccn3)oc12` (single isomer, unassigned) [Example 89, (2-{[(4-Chloropyridin-2-yl)methyl]amino}-7-methoxy-1,3-benzoxazol-5-yl) [2-(1-hydroxycyclopropyl)-5-methylpiperidin-1-yl]methanone] are 17 nM and 35 nM.
On the same counts, the results for `COc1cc(C(=O)N2CC(C)CCC2C2(O)CC2)cc2nc(NCc3cc(Cl)ccn3)oc12` (single isomer, unassigned) [Example 90, (2-{[(4-Chloropyridin-2-yl)methyl]amino}-7-methoxy-1,3-benzoxazol-5-yl) [2-(1-hydroxycyclopropyl)-5-methylpiperidin-1-yl]methanone] are 28 nM and 94 nM.
On the same counts, the results for `COc1cc(C(=O)N2CC(C)CCC2C2(O)CC2)cc2nc(NCc3cc(Cl)ccn3)oc12` (single isomer, unassigned) [Example 91, (2-{[(4-Chloropyridin-2-yl)methyl]amino}-7-methoxy-1,3-benzoxazol-5-yl) [2-(1-hydroxycyclopropyl)-5-methylpiperidine-1-yl]methanone] are 13 nM and 24 nM.
In the case of `COc1cc(C(=O)N2CC(C)NC(=O)C2CC#N)cc2nc(NCc3cc(Cl)ccn3)oc12` (single isomer, unassigned) [Example 92, {1-[(2-{[(4-Chloropyridin-2-yl)methyl]amino}-7-methoxy-1,3-benzoxazol-5-yl)carbonyl]-5-methyl-3-oxopiperazin-2-yl}acetonitrile], the IC50 amounted to 96 nM at thrombin [1] and 148 nM against thrombin [2].
Regarding `COc1cc(C(=O)N2CC(C)(C)OCC2C(C)(C)O)cc2nc(NCc3cc(Cl)ccn3)oc12` (single isomer, unassigned) [Example 93, (2-{[(4-Chloropyridin-2-yl)methyl]amino}-7-methoxy-1,3-benzoxazol-5-yl) [5-(2-hydroxypropan-2-yl)-2,2-dimethylmorpholin-4-yl]methanone], the IC50 on thrombin [1] amounted to 8.8 nM; at thrombin [2], 17 nM.
As for `COc1cc(C(=O)N2CC(C)(C)OCC2C2(O)CC2)cc2nc(NCc3cc(Cl)ccn3)oc12` (single isomer, unassigned) [Example 94, (2-{[(4-Chloropyridin-2-yl)methyl]amino}-7-methoxy-1,3-benzoxazol-5-yl) [5-(1-hydroxycyclopropyl)-2,2-dimethylmorpholin-4-yl]methanone], the results for the IC50 on thrombin [1] and against thrombin [2] were 18 nM and 28 nM, respectively.
Consider `COc1cc(C(=O)N2CC(C)(C)OCC2C(C)O)cc2nc(NCc3cc(Cl)ccn3)oc12` (single isomer, unassigned) [Example 95, (2-{[(4-Chloropyridin-2-yl)methyl]amino}-7-methoxy-1,3-benzoxazol-5-yl) [5-(1-hydroxyethyl)-2,2-dimethylmorpholin-4-yl]methanone], for which the IC50 on thrombin [1] stood at 6.8 nM; against thrombin [2], 13 nM.
Take `COc1cc(C(=O)N2CC(C)(C)OCC2C(C)O)cc2nc(NCc3cc(Cl)ccn3)oc12` (single isomer, unassigned) [Example 96, (2-{[(4-Chloropyridin-2-yl)methyl]amino}-7-methoxy-1,3-benzoxazol-5-yl) [5-(1-hydroxyethyl)-2,2-dimethylmorpholin-4-yl]methanone]: the IC50 against thrombin [1] was found to be 41 nM; against thrombin [2], 43 nM.
On the same counts, the results for `CCO[C@@H]1CC(CO)N(C(=O)c2cc(OC)c3oc(NCc4cc(Cl)ccn4)nc3c2)C1` (stereo partly drawn) [Example 1, (2-{[(4-Chloropyridin-2-yl)methyl]amino}-7-methoxy-1,3-benzoxazol-5-yl)[(4R)-4-ethoxy-2-(hydroxymethyl)pyrrolidin-1-yl]methanone] are 15 nM and 25 nM.
`CCO[C@@H]1CC(CO)N(C(=O)c2cc(OC)c3oc(NC(C)c4cc(Cl)ccn4)nc3c2)C1` (stereo partly drawn) [Example 4, (2-{[1-(4-Chloropyridin-2-yl)ethyl]amino}-7-methoxy-1,3-benzoxazol-5-yl)[(4R)-4-ethoxy-2-(hydroxymethyl)pyrrolidin-1-yl]methanone]: the IC50 against thrombin [1] came out at 39 nM; at thrombin [2], 66 nM.
In the case of `COc1cc(C(=O)N2C[C@H](OC3CC3)C[C@H]2C(=O)N2CC(F)(F)C2)cc2nc(NCc3cc(Cl)ccn3)oc12` [Example 10, (2-{[(4-Chloropyridin-2-yl)methyl]amino}-7-methoxy-1,3-benzoxazol-5-yl){(2S,4R)-4-(cyclopropyloxy)-2-[(3,3-difluoroazetidin-1-yl)carbonyl]pyrrolidin-1-yl}methanone], the IC50 on thrombin [1] turned out to be 31 nM; against thrombin [2] it was 39 nM.
Turning to `COc1cc(C(=O)N2C[C@H](OC3CC3)C[C@H]2C(=O)N2CC(F)C2)cc2nc(NCc3cc(Cl)ccn3)oc12` [Example 11, (2-{[(4-Chloropyridin-2-yl)methyl]amino}-7-methoxy-1,3-benzoxazol-5-yl){(2S,4R)-4-(cyclopropyloxy)-2-[(3-fluoroazetidin-1-yl)carbonyl]pyrrolidin-1-yl}methanone], the half-inhibitory concentration (IC50) is 31 nM on thrombin [1] and 101 nM at thrombin [2].
Take `COc1cc(C(=O)N2C[C@H](OC3CC3)C[C@H]2CO)cc2nc(NCc3cc(Cl)ccn3)oc12` [Example 12, (2-{[(4-Chloropyridin-2-yl)methyl]amino}-7-methoxy-1,3-benzoxazol-5-yl)[(2S,4R)-4-(cyclopropyloxy)-2-(hydroxymethyl)pyrrolidin-1-yl]methanone]: the IC50 was determined as 4.4 nM against thrombin [1] and 8.9 nM against thrombin [2].
